Holding throughout (experiment): pot-culture method, stem and leaf treatment in greenhouse, fresh weight inhibition rate 20 days after treatment (Gowing method)
Format in all cases: in vivo

One assay deals with Capsella bursa-pastoris. Particulars: 480 h, Capsella bursa-pastoris, read-out: actual fresh weight inhibition rate. As for the experimental part:
(§1) Capsella bursa-pastoris, Myosoton aquaticum, Alopecurus japonicus were collected from corn fields in Huangdao Experimental Base of Shandong Province.
(§2) The above weeds were cultivated by a pot culture method. […] Full and uniform weed seeds were selected, soaked in warm water at 25° C. for 6 hours, and germinated in a 28° C. biochemical incubator (darkness). […] A certain amount of water was added to the enamel pan regularly to keep the soil moist.
(§3) The technical materials were all dissolved in acetone, and diluted with an aqueous solution containing 0.1% emulsifier T-80. The dilution is performed as required.
(§4) A ratio of the active ingredient A to the active ingredient B and amounts thereof in each group depends on the characteristics and toxicity of the two agents, as well as the main application purpose of a corresponding formulation. Based on the pre-tests in this study, the dosage of the active ingredient A and the active ingredient B applied alone and in combination were shown in the tables, and a total 15 groups were designed. Water containing the solvent and emulsifier same with the above groups but free of the agents was used as a blank control.
(§5) 3 pots with 20 weed seeds per pot were treated in one treatment with […] per treatment, that is, a total of 60 weeds were treated in one treatment.
(§6) The agents were used for only once in the experiment. In the stage of weeds with 2 leaves and 1 core, the weeds were thinned out to maintain 15 weeds per pot and 45 weeds for each treatment, then continued to be cultured to 3-5-leaves stage of Capsella bursa-pastoris and Myosoton aquaticum, and 3-leaves and 1-core stage of Alopecurus japonicus, and treated.
(§7) The well-cultured weeds were evenly placed on a platform with an area of 0.5 m^2, and a solution of agents was sprayed on the stems and leaves thereof by the 3WP-2000-type walking spray tower at a dosage of 30 kg/ha and at a spray pressure of 0.3 MPa. After all the solution was sprayed, the valve was closed. After 30 seconds, the door of the spray tower was opened, and the nutritional bowl was taken out. Then the valve was opened, and the spray tube was cleaned by spraying 50 ml of water.
(§8) A pot-culture method was employed. For the cultivation of weeds, please refer to the Section 1.2, and “Pesticide guidelines for laboratory bioactivity tests—herbicides”. As to a method for applying agents, please refer to the section 2.3.2, that is, a method for treating stems and leaves was employed.
(§9) A method for investigating absolute number was employed, wherein whole seedlings of survival weeds were cut off with a blade along the soil surface, and the fresh weight of the weeds was weighed with an analytical balance. For dead weeds, the fresh weight thereof was zero.
(§10) The investigation was performed after 20 days of the treatment for only once.
(§11) Wherein, in the formula, X represented the fresh weight inhibition rate of the active ingredient A in a dosage of P, and Y represented the fresh weight inhibition rate of the active ingredient B in a dosage of Q.

In the next assay the test system is Myosoton aquaticum. The note with it: Myosoton aquaticum, 480 h, read-out: actual fresh weight inhibition rate. On the procedure: as §1, §2, §3, §4, §5, §6, §7, §8, §9, §10, §11
In another assay the test system is Alopecurus japonicus. As for the experimental part: as §1, §2, §3, §4, §5, §6, §7, §8, §9, §10, §11

Molecules are shown by their SMILES. Read-outs that look alike come from different tables or passages of the source.

For `Cc1nn(C)cc1C(=O)Oc1c(C(=O)c2ccc(C(F)(F)F)cc2S(C)(=O)=O)c(C)nn1C` [active ingredient A], the pest or weed control at 15 g/ha is 72.3% in the assay on Capsella bursa-pastoris (15 g/hm^2); 13.2% in the assay with Myosoton aquaticum (Myosoton aquaticum (Table 19), 15 g/hm^2); 67.4% with Myosoton aquaticum (15 g/hm^2); 67.4% in the assay on Myosoton aquaticum (dosage 15 g/hm^2). The pest or weed control at 30 g/ha was found to be 90.5% in the assay on Capsella bursa-pastoris (30 g/hm^2); 16.5% in the assay on Myosoton aquaticum (Myosoton aquaticum (Table 19), 30 g/hm^2); 87.6% in the assay on Myosoton aquaticum (30 g/hm^2); 87.6% in the assay with Myosoton aquaticum (dosage 30 g/hm^2). The pest or weed control at 45 g/ha was 100% with Capsella bursa-pastoris (45 g/hm^2); 24.6% in the assay on Myosoton aquaticum (Myosoton aquaticum (Table 19), 45 g/hm^2); 100% with Myosoton aquaticum (45 g/hm^2); 100% in the assay with Myosoton aquaticum (dosage 45 g/hm^2). For the same compound, the “actual fresh weight inhibition rate” value was 13.2% in the assay with Alopecurus japonicus (Alopecurus japonicus, 15 g/hm^2); 16.5% in the assay on Alopecurus japonicus (Alopecurus japonicus, 30 g/hm^2); 24.6% in the assay with Alopecurus japonicus (Alopecurus japonicus, 45 g/hm^2); 13.2% in the assay with Alopecurus japonicus (dosage 15 g/hm^2); 16.5% in the assay on Alopecurus japonicus (dosage 30 g/hm^2); 24.6% in the assay with Alopecurus japonicus (dosage 45 g/hm^2).

The values are drawn from patent US10506810B2, “Synergistic herbicidal composition” (QINGDAO KINGAGROOT RESISTANT WEED MANAGEMENT CO., LTD., priority 2015, dated 2019).
